Laboratory results published in US20070232698A1, “Slimming Skin External Preparation and Cosmetic Containing the Same” (priority 2004, published 2007).
Structures can show the parent of a compound that is named as a salt.

What was measured:
Mouse 3T3-F442A cells = experiment: Triglyceride accumulation in adipocytes with base acylcarnitine plus test substance (oil red staining); assay type: cell-based; settings: 4 days, control = base alone; for accumulated triglyceride amount relative to the control (100%), Base Hexadecanoyl-L-carnitine hydrochloride: base hexadecanoyl-L-carnitine hydrochloride plus 50 μM test substance (ginkgo biloba extract 30 μg/ml; garcinia extract as hydroxycitric acid); for accumulated triglyceride amount relative to the control (100%), Base Octadecanoyl-L-carnitine hydrochloride: base octadecanoyl-L-carnitine hydrochloride plus 50 μM test substance (ginkgo biloba extract 30 μg/ml; garcinia extract as hydroxycitric acid)
Procedure: The incubation was continued for another 4 days. The control was incubated using a culture medium that contained the base alone (no test substances). After the 4-days incubation, the cells were washed three times with Dulbecco's PBS (−). The triglyceride amount accumulated in the cells was quantitatively determined by oil red staining. […] Mouse 3T3-F442A cells were incubated as described in Example 10, and differentiation into adipocytes was observed. […] The incubation was continued for another 4 days. The control was incubated using a culture medium that contained the base alone (no test substances). After the 4-days incubation, the cells were washed three times with Dulbecco's PBS (−). The triglyceride amount accumulated in the cells was quantitatively determined by oil red staining.

[1] = tested on: skin together with subcutaneous fat tissues; experiment: Subcutaneous fat breakdown test (rat abdominal skin with subcutaneous fat in Franz diffusion cell); settings: lower cell PBS (−), 37° C., average of three measurements, control (none) 20
Procedure: A male Wister rat, 10 weeks old, was shaved on the abdomen, and the skin was removed together with subcutaneous fat tissues and was placed in a Franz diffusion cell. An upper cell on the skin surface was filled with a buffer solution containing the Example 1 test substance, and a lower cell was filled with Dulbecco's PBS (−). The diffusion cell was held at 37° C. and was allowed to stand for 8 or 16 hours. After the lapse of each of the standing times, PBS (−) was withdrawn from the lower cell. The content of free glycerol resulting from the fat breakdown was measured with use of Glycerol Test E Wako. The results are averages of three measurements.
The free glycerol contents were measured in the same manner as in Example 3, except that the two carnitine and carnitine derivative 1) and 6) used in Example 4 were tested. The results are averages of three measurements.
The free glycerol contents were measured in the same manner as in Example 3, except that the three carnitine and carnitine derivatives 1), 7) and 8) used in Example 7 were tested. The results are averages of three measurements.

[2] = tested on: human skin tissue three dimensional model (TESTSKIN LSD-d); experiment: Comparison of percutaneous absorption properties: carnitine content in skin model; settings: 1% by mass solution, 50 μL on tissue surface for 2 hours; for carnitine content in the skin model, After 2-hour incubation: then 2-hour incubation at 37° C.; for carnitine content in the skin model, After 6-hour incubation: then 6-hour incubation at 37° C.; for carnitine content in the skin model, After 12-hour incubation: then 12-hour incubation at 37° C.
Procedure: The test substances were each dissolved in Dulbecco's PBS (−) to give a 1% by mass solution of the test substance. The test substance solutions were placed, each 50 μL, to a tissue surface of human skin tissue three dimensional model (TESTSKIN™ LSD-d, available from TOYOBO CO., LTD.), and were incubated at 37° C. in a 5% CO2 atmosphere for 2 hours. Thereafter the test substance solutions were aspirated out, and the skin models were further incubated at 37° C. in a 5% CO2 atmosphere for 2, 6 or 12 hours. The skin models were sampled after the lapse of each of the incubation times. The skin models sampled at the incubation times were washed with Dulbecco's PBS (−), and the tissue surfaces on which the test substances had been placed were punched out with a punch 6 mm in diameter. The skin models were then homogenated in a HEPES buffer solution (pH: 7.2), and were quantitatively analyzed using a high performance liquid chromatography to determine the carnitine content in the skin model.
From the analysis results, the carnitine contents in the skin models (unit: nmol/mg skin protein) were obtained for the test substances at each of the incubation times.

Mouse 3T3 adipocytes = experiment: Measurement of fat metabolic activity for mouse 3T3 adipocytes (free glycerol in culture medium); assay type: cell-based; settings: 250 μM test substance, medium recovered after 24 hours; control (none) = 100
Procedure: The five carnitine and carnitine derivatives 1) to 5) used in Example 1 were tested. The fat metabolic activity was measured and compared by quantitative determination of glycerol in the culture medium based on the fact that metabolism of the fat accumulated in adipocytes releases glycerol and free fatty acid to the culture medium.
Mouse 3T3 cells as the preadipocytes were disseminated on a 10 cm-diameter dish such that 1×10^4 cells were on the dish. […] Thereafter, the culture medium was replaced with a 10% FCS-containing DMEM culture medium that contained […] of dexamethasone, 0.5 mM of isobutylmethylxanthine and 10 μg/ml of insulin, and incubation was continued for another 2 days. Subsequently, the culture medium was replaced again with a 10% FCS-containing ordinary DMEM culture medium, and incubation was performed for another week, resulting in differentiation of the preadipocytes into adipocytes. Next, the culture medium was replaced with an ordinary culture medium that contained 250 μM of the carnitine or carnitine derivative of the five substances 1) to 5) used in Example 1, and the culture medium was recovered after 24 hours. The cells were washed with Dulbecco's PBS (−) and were recovered. Cells incubated in the absence of the test substances were used as the control. The glycerol content in the culture medium was quantitatively determined using Glycerol Test E Wako (Wako Pure Chemical Industries, Ltd.).
The fat metabolic activity for mouse 3T3 adipocytes was determined based on the free glycerol content in the same manner as in Example 2, except that the two carnitine and carnitine derivative 1) and 6) used in Example 4 were tested.
The fat metabolic activity for mouse 3T3 adipocytes was determined based on the free glycerol content in the same manner as in Example 2, except that the three carnitine and carnitine derivatives 1), 7) and 8) used in Example 7 were tested.

Row | Compound | accumulated triglyceride amount relative to the control (100%), Base Hexadecanoyl-L-carnitine hydrochloride (Mouse 3T3-F442A cells) [%] | accumulated triglyceride amount relative to the control (100%), Base Octadecanoyl-L-carnitine hydrochloride (Mouse 3T3-F442A cells) [%] | Free glycerol, After 8 hours [1] [µmol/mL] | Free glycerol, After 16 hours [1] [µmol/mL] | carnitine content in the skin model, After 2-hour incubation [2] [nmol/mg skin protein] | carnitine content in the skin model, After 6-hour incubation [2] [nmol/mg skin protein] | carnitine content in the skin model, After 12-hour incubation [2] [nmol/mg skin protein] | Free glycerol content (% relative to the control) (Mouse 3T3 adipocytes)
1 | Cc1c(C)c2c(c(C)c1OP(=O)([O-])[O-])CCC(C)(CCCC(C)CCCC(C)CCCC(C)C)O2.[Na+].[Na+] (racemic) [dl-α-Tocopherol phosphate sodium salt] | 100 | 102 |  |  |  |  |  | 
2 | Cc1c(C)c2c(c(C)c1OC(=O)CN(C)C)CCC(C)(CCCC(C)CCCC(C)CCCC(C)C)O2.Cl (racemic) [dl-α-Tocopherol-N,N-dimethylglycine ester hydrochloride] | 98 | 99 |  |  |  |  |  | 
3 | CC(C)Cn1c(=O)n(C)c(=O)c2[nH]cnc21 [3-Isobutyl-1-methylxanthine] | 50 | 57 |  |  |  |  |  | 
4 | O=C1O[C@H]([C@@H](O)CO)C(O)=C1O[C@H]1O[C@H](CO)[C@@H](O)[C@H](O)[C@H]1O [Ascorbic acid-2-glucoside] | 99 | 102 |  |  |  |  |  | 
5 | O=C1O[C@H]([C@@H](O)CO)C(O)=C1OP(=O)([O-])[O-].[Mg+2] [Ascorbic acid-2-phosphate magnesium salt] | 98 | 97 |  |  |  |  |  | 
6 | CCCCCCCCCCCCCCCC(=O)OC[C@H](O)[C@H]1OC(=O)C(OP(=O)([O-])[O-])=C1[O-].[Na+].[Na+].[Na+] [Ascorbic acid-2-phosphoric acid-6-palmitate sodium salt] | 96 | 96 |  |  |  |  |  | 
7 | OCC(O)CO [Glycerol] | 118 | 113 |  |  |  |  |  | 
8 | CCCCCCCCCCCCCCCC(=O)OC(CC(=O)O)(C(=O)O)C(O)C(=O)O (centres unmarked) [Hydroxycitric acid-2-palmitate] | 70 | 72 |  |  |  |  |  | 
9 | CC(C)NCC(O)c1ccc(O)c(O)c1 (centres unmarked) [Isoproterenol hydrochloride] | 60 | 64 |  |  |  |  |  | 
10 | C[N+](C)(C)C[C@H](O)CC(=O)[O-].Cl [L-carnitine hydrochloride] | 99 | 102 |  |  |  |  |  | 
11 | CCCCCCCCCCCCCC(=O)O [Myristic acid] | 99 | 98 |  |  |  |  |  | 
12 | CCCCCCCCCCCCCCCC(=O)O [Palmitic acid] | 102 | 100 |  |  |  |  |  | 
13 | Cc1ccc(N(CC2=NCCN2)c2cccc(O)c2)cc1 [Phentolamine hydrochloride] | 68 | 65 |  |  |  |  |  | 
14 | CCCCCCCCCCCCCCCCCC(=O)O [Stearic acid] | 101 | 99 |  |  |  |  |  | 
15 | C[N+](C)(C)C[C@H](O)CC(=O)[O-] [Test substance 1), L-Carnitine, reference compound] |  |  | 120 | 125 | 12 | 12 | 11 | 120 % relative to the control
16 | CCCCCCCCCCCCCCCCOC(=O)C[C@@H](O)C[N+](C)(C)C.[Cl-] [Test substance 6), L-Carnitine hexadecyl ester hydrochloride] |  |  | 110 | 116 | 5 | 11 | 26 | 165 % relative to the control
17 | CCCCCCCCCCCCCCCC(=O)O[C@H](CC(=O)OC)C[N+](C)(C)C.[Cl-] [Test substance 7), Hexadecanoyl-L-carnitine methyl ester hydrochloride] |  |  | 68 | 145 | 2 | 9 | 19 | 143 % relative to the control
18 | CCCCCCCCCCCCCCCCOC(=O)C[C@H](C[N+](C)(C)C)OC(=O)CCCCCCCCCCCCCCC.[Cl-] [Test substance 8), Hexadecanoyl-L-carnitine hexadecyl ester hydrochloride] |  |  | 75 | 150 | 2 | 8 | 21 | 148 % relative to the control
19 | Cn1c(=O)c2[nH]cnc2n(C)c1=O [Theophylline] | 62 | 58 |  |  |  |  |  | 
20 | Calcium hydroxycitrate | 89 | 88 |  |  |  |  |  | 
